pIC50: −log10 of the molar value. Strand notation (5' to 3'): a small letter for the sugar, then the base; units joined by * are phosphorothioate-linked, units joined directly phosphodiester-linked; [ ] holds rarer units or linkages, { } end groups; capitals alone tell only the bases. k = constrained ethyl (cEt); [5mC] = 5-methylcytosine; d = 2'-deoxy (DNA)
Legend:
Type in all cases: cell-based
Yap1 mRNA [1] = assay: Dose-dependent inhibition of human Yap1 in A-431 cells (Example 6, 5,000 cells per well, RTS4814); conditions: for % UTC 148 nM / % UTC 444 nM / % UTC 1333 nM / % UTC 4000 nM: approximately 48 hours; for Yap1 mRNA, % UTC: 48 hours
Protocol: Modified oligonucleotides described in the studies above were tested at various doses in A-431 cells. Cultured A-431 cells at a density of 5,000 cells per well were treated using free uptake with modified oligonucleotides diluted to concentrations described in the tables below. After approximately 48 hours, Yap1 mRNA levels were measured as previously described using the Human Yap1 primer-probe set RTS4814. Yap1 mRNA levels were normalized to total RNA content, as measured by RIBOGREEN®. Results are presented in the tables below as percent control of the amount of Yap1 mRNA relative to untreated control cells (% UTC). IC50s were calculated using a linear regression on a log/linear plot of the data in excel.

Yap1 mRNA [2] = assay: Antisense inhibition of human Yap1 in SNU-449 cells by modified oligonucleotides, single dose (Example 5, RTS36584); conditions: Yap1 mRNA, percent of untreated control; modified oligonucleotides targeting SEQ ID NO: 1 and 2; Table 47
In short: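 SNU-449 cells were given 2,000 nM oligonucleotide by free uptake for about 48 h. Yap1 mRNA was then measured by RT-qPCR with primer probe set RTS36584, normalized to total RNA by RIBOGREEN and expressed as percent of untreated control.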

Yap1 mRNA [3] = assay: Antisense inhibition of human Yap1 in A-431 cells by cEt gapmers, single dose (Example 4, RTS4814)
In short: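 Values are % UTC: Yap1 mRNA by quantitative RT-PCR, normalized to RIBOGREEN total RNA. Cells were exposed ~48 h to 2,000 nM oligonucleotide without transfection. Oligonucleotides were 16-nucleoside gapmers with three cEt nucleosides per wing, ten-deoxy gap, P=S linkages throughout.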

Yap1 mRNA [4] = assay: Dose-dependent inhibition of human Yap1 in A-431 cells (Example 8, 10,000 cells per well, RTS4814); conditions: A-431 cells; for pIC50: Yap1 mRNA
In short: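 Yap1 mRNA, normalized to RIBOGREEN total RNA and expressed as % untreated control, was read with RTS4814 about 48 h after free-uptake oligonucleotide treatment of A-431 cells at 10,000 cells/well. IC50 derived by linear regression of log/linear data.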

[5] = Table 53, A-431 cells, Yap1 mRNA, linear regression on a log/linear plot
[6] = Table 53, A-431 cells, free uptake, 148 nM, RTS4814
[7] = Table 53, A-431 cells, free uptake, 444 nM, RTS4814
[8] = Table 53, A-431 cells, free uptake, 1333 nM, RTS4814
[9] = Table 53, A-431 cells, free uptake, 4000 nM, RTS4814
[10] = Yap1 mRNA remaining as percent of untreated control, 3-10-3 cEt gapmers, A-431 cells, Table 36

715555 (kG*kT*kT*dA*dT*dT*d[5mC]*dA*dG*d[5mC]*dA*dG*d[5mC]*kT*kT*kA; antisense) [compound 715555]
pIC50 (Yap1 mRNA [1]; [5]): 5.60
% UTC 148 nM (Yap1 mRNA [1]; [6]): 93 % UTC
% UTC 444 nM (Yap1 mRNA [1]; [7]): 71 % UTC
% UTC 1333 nM (Yap1 mRNA [1]; [8]): 63 % UTC
% UTC 4000 nM (Yap1 mRNA [1]; [9]): 42 % UTC

1074755 (CACTTTTACATTAGGA; antisense; chemistry not fully specified) [Compound 1074755]
YAP1 (% UT) (Yap1 mRNA [2]): 23 % UT
YAP1 (% UTC) (Yap1 mRNA [3]; Table 17, A-431 cells, 5,000 cells per well, free uptake, 2,000 nM, approximately 48 hours, RTS4814, normalized to RIBOGREEN, Yap1 mRNA relative to untreated control cells): 3 % UTC

715471 (kT*kA*kT*d[5mC]*dT*dA*dG*d[5mC]*dT*dT*dG*dG*dT*kG*kG*k[5mC]; antisense) [compound 715471]
pIC50 (Yap1 mRNA [1]; Table 54, A-431 cells, Yap1 mRNA, linear regression on a log/linear plot): < 5.40
% UTC 148 nM (Yap1 mRNA [1]; Table 54, A-431 cells, free uptake, 148 nM, RTS4814): 82 % UTC
% UTC 444 nM (Yap1 mRNA [1]; Table 54, A-431 cells, free uptake, 444 nM, RTS4814): 103 % UTC
% UTC 1333 nM (Yap1 mRNA [1]; Table 54, A-431 cells, free uptake, 1333 nM, RTS4814): 105 % UTC
% UTC 4000 nM (Yap1 mRNA [1]; Table 54, A-431 cells, free uptake, 4000 nM, RTS4814): 79 % UTC

715433 (kT*kG*kT*dT*d[5mC]*dT*dT*dA*dT*dG*dG*dT*dT*kT*kA*kT; antisense) [compound 715433]
pIC50 (Yap1 mRNA [1]; [5]): 5.60
% UTC 148 nM (Yap1 mRNA [1]; [6]): 87 % UTC
% UTC 444 nM (Yap1 mRNA [1]; [7]): 72 % UTC
% UTC 1333 nM (Yap1 mRNA [1]; [8]): 65 % UTC
% UTC 4000 nM (Yap1 mRNA [1]; [9]): 40 % UTC

715434 (kT*k[5mC]*kT*dT*dG*dT*dT*d[5mC]*dT*dT*dA*dT*dG*kG*kT*kT; antisense) [compound 715434]
pIC50 (Yap1 mRNA [1]; [5]): 5.55
% UTC 148 nM (Yap1 mRNA [1]; [6]): 84 % UTC
% UTC 444 nM (Yap1 mRNA [1]; [7]): 69 % UTC
% UTC 1333 nM (Yap1 mRNA [1]; [8]): 64 % UTC
% UTC 4000 nM (Yap1 mRNA [1]; [9]): 43 % UTC

716500 (antisense kA*kA*k[5mC]*dT*dT*d[5mC]*dT*dT*dA*d[5mC]*dT*dT*d[5mC]*k[5mC]*kA*kA) [compound 716500]
Yap1 mRNA, % UTC (Yap1 mRNA [1]; Table 55, 148 nM, free uptake, A-431 cells 5,000 cells per well, RTS4814): 88 % UTC
Yap1 mRNA, % UTC (Yap1 mRNA [1]; Table 55, 444 nM, free uptake, A-431 cells 5,000 cells per well, RTS4814): 96 % UTC
Yap1 mRNA, % UTC (Yap1 mRNA [1]; Table 55, 1333 nM, free uptake, A-431 cells 5,000 cells per well, RTS4814): 79 % UTC
Yap1 mRNA, % UTC (Yap1 mRNA [1]; Table 55, 4000 nM, free uptake, A-431 cells 5,000 cells per well, RTS4814): 46 % UTC
pIC50 (Yap1 mRNA [1]; Table 55, A-431 cells 5,000 cells per well, free uptake, RTS4814): < 5.40

715486 (kT*kA*k[5mC]*dT*dT*d[5mC]*dA*dT*dA*dG*d[5mC]*dT*dT*kA*kT*kA; antisense) [compound 715486]
pIC50 (Yap1 mRNA [1]; [5]): < 5.40
% UTC 148 nM (Yap1 mRNA [1]; [6]): 93 % UTC
% UTC 444 nM (Yap1 mRNA [1]; [7]): 89 % UTC
% UTC 1333 nM (Yap1 mRNA [1]; [8]): 81 % UTC
% UTC 4000 nM (Yap1 mRNA [1]; [9]): 56 % UTC

715577 (kG*k[5mC]*kA*dT*dT*d[5mC]*dA*d[5mC]*dA*dG*dA*dG*dT*kT*kA*kA; antisense) [compound 715577]
pIC50 (Yap1 mRNA [1]; [5]): < 5.40
% UTC 148 nM (Yap1 mRNA [1]; [6]): 87 % UTC
% UTC 444 nM (Yap1 mRNA [1]; [7]): 76 % UTC
% UTC 1333 nM (Yap1 mRNA [1]; [8]): 73 % UTC
% UTC 4000 nM (Yap1 mRNA [1]; [9]): 45 % UTC

1074464 (kT*kT*kA*dG*dA*dG*dT*dA*dT*dG*dT*dG*dG*k[5mC]*kA*kA) [Compound 1074464]
YAP1 (% UT) (Yap1 mRNA [2]): 5 % UT
YAP1 (% UTC) (Yap1 mRNA [3]; Table 14, A-431 cells, 5,000 cells per well, free uptake, 2,000 nM, approximately 48 hours, RTS4814, normalized to RIBOGREEN, Yap1 mRNA relative to untreated control, * = targets amplicon region of primer probe set): 2 % UTC

1076481 (antisense k[5mC]*kT*kA*dA*dG*dT*dA*dA*dG*dG*dT*dT*dT*k[5mC]*k[5mC]*k[5mC]) [Compound 1076481]
YAP1 (% UT) (Yap1 mRNA [2]): ^mCksTksAksAdsGdsTdsAdsAdsGdsGds13 % UT
YAP1 (% UTC) (Yap1 mRNA [3]; Table 15, A-431 cells, 5,000 cells per well, free uptake, 2,000 nM, approximately 48 hours, RTS4814, normalized to RIBOGREEN, Yap1 mRNA relative to untreated control, * = targets amplicon region of primer probe set): 1 % UTC

1074230 (antisense kA*kA*kG*dA*dA*dG*dA*d[5mC]*dT*dG*dT*d[5mC]*dG*kA*kA*kG) [compound 1074230]
% UTC (Yap1 mRNA) (Yap1 mRNA [4]; 31.3 nM): 62 % UTC
% UTC (Yap1 mRNA) (Yap1 mRNA [4]; 125.0 nM): 30 % UTC
% UTC (Yap1 mRNA) (Yap1 mRNA [4]; 500.0 nM): 12 % UTC
% UTC (Yap1 mRNA) (Yap1 mRNA [4]; 2000.00 nM): 8 % UTC
pIC50 (Yap1 mRNA [4]): 7.30
YAP1 (% UTC) (Yap1 mRNA [3]; [10]): 4 % UTC

1076406 (antisense kA*kT*kT*dA*dT*dT*dT*dA*dA*dG*dA*d[5mC]*d[5mC]*kT*kG*kG) [compound 1076406]
% UTC (Yap1 mRNA) (Yap1 mRNA [4]; 31.3 nM): 51 % UTC
% UTC (Yap1 mRNA) (Yap1 mRNA [4]; 125.0 nM): 20 % UTC
% UTC (Yap1 mRNA) (Yap1 mRNA [4]; 500.0 nM): 9 % UTC
% UTC (Yap1 mRNA) (Yap1 mRNA [4]; 2000.00 nM): 7 % UTC
pIC50 (Yap1 mRNA [4]): > 7.70
YAP1 (% UTC) (Yap1 mRNA [3]; [10]): 4 % UTC

From patent publication US11214803B2, “Modulators of YAP1 expression” (Ionis Pharmaceuticals, Inc., priority 2019, dated 2022)
